Reference: ChEMBL document CHEMBL1125853, “An acyliminium ion route to and Anti phe-gly dipeptide mimetics” (Bioorg Med Chem Lett, 1991)

Molecular target: Angiotensin-converting enzyme (Homo sapiens, UniProt P12821)
Experiment: Inhibitory constant angiotensin converting enzyme

Angiotensin-converting enzyme, sequence (P12821 whole entry): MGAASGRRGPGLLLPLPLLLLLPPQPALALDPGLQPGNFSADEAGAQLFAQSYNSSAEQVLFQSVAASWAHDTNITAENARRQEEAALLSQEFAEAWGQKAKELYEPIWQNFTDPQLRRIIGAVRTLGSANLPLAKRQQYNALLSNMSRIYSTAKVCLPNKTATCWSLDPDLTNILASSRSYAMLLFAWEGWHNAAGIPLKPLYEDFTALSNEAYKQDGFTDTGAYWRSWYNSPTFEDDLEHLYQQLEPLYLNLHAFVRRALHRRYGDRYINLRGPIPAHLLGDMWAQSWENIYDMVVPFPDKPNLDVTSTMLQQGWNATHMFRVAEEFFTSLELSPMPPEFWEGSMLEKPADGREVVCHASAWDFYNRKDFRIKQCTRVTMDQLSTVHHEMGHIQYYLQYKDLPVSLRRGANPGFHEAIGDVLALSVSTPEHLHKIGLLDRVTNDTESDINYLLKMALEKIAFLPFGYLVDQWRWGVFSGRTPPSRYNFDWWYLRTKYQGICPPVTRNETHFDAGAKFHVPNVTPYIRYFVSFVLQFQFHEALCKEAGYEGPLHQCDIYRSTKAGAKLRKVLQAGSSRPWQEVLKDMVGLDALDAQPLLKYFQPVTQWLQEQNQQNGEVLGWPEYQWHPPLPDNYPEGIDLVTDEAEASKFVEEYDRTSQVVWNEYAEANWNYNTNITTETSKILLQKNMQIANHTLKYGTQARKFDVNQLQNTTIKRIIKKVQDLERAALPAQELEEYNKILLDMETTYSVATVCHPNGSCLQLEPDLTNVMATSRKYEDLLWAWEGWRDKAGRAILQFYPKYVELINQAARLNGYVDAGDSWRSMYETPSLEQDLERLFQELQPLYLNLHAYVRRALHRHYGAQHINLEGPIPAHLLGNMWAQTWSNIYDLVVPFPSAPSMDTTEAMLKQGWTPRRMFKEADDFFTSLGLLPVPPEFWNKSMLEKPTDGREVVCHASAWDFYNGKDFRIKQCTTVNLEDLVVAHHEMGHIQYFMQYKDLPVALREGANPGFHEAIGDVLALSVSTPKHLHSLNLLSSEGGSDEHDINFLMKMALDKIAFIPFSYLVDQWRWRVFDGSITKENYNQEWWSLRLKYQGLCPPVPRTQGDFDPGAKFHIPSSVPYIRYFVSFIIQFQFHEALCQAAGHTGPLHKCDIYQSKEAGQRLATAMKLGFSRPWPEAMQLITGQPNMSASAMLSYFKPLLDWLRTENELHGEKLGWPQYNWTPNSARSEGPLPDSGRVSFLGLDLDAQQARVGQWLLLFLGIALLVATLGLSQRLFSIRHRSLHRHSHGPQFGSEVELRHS

Structure (SMILES): O=C(O)CN1Cc2ccccc2CC(N[C@H](CCc2ccccc2)C(=O)O)C1=O (stereo partly specified)
- Ki: 10 nM
